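How tested: cells in 96-well plates exposed to compound for 48 hours at five concentrations. Here, GI50 denotes the concentration required for 50% inhibition of growth. TGI marks complete inhibition of growth.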
What was measured:
Assay in all cases: DTP human tumour cell line panel, 48 h
[1] = tested on: 786-0 renal
[2] = tested on: A498 renal
[3] = tested on: A549 NSCLC
[4] = tested on: ACHN renal
[5] = tested on: BT-549 breast
[6] = tested on: CAKI-1 renal
[7] = tested on: COLO 205 colon
[8] = tested on: DU-145 prostate
[9] = tested on: EKVX NSCLC
[10] = tested on: HCT-116 colon
[11] = tested on: HCT-15 colon
[12] = tested on: HL-60(TB) leukemia
[13] = tested on: HS 578T breast
[14] = tested on: HT29 colon
[15] = tested on: IGROV1 ovarian
[16] = tested on: K-562 leukemia
[17] = tested on: KM12 colon
[18] = tested on: LOX IMVI melanoma
[19] = tested on: M14 melanoma
[20] = tested on: MCF7 breast
[21] = tested on: MDA-MB-435
[22] = tested on: MOLT-4 leukemia
[23] = tested on: NCI-H226 lung
[24] = tested on: NCI-H23 lung
[25] = tested on: NCI-H460 lung
[26] = tested on: NCI-H522 lung
[27] = tested on: NCI/ADR-RES ovarian
[28] = tested on: OVCAR-3 ovarian
[29] = tested on: OVCAR-4 ovarian
[30] = tested on: OVCAR-5 ovarian
[31] = tested on: OVCAR-8 ovarian
[32] = tested on: PC-3 prostate
[33] = tested on: RPMI-8226 leukemia
[34] = tested on: RXF 393 renal
[35] = tested on: SF-268 CNS
[36] = tested on: SF-295 CNS
[37] = tested on: SF-539 CNS
[38] = tested on: SK-MEL-2 melanoma
[39] = tested on: SK-MEL-28 melanoma
[40] = tested on: SK-MEL-5 melanoma
[41] = tested on: SN12C renal
[42] = tested on: SNB-19 CNS
[43] = tested on: SNB-75 CNS
[44] = tested on: SR leukemia
[45] = tested on: SW-620 colon
[46] = tested on: TK-10 renal
[47] = tested on: U251 CNS
[48] = tested on: UACC-257 melanoma
[49] = tested on: UACC-62 melanoma
[50] = tested on: UO-31 renal

## COc1cc(C2SCC(=O)N2c2ncc(C)s2)cc(OC)c1OC (stereo not given)
[1]
  GI50: > 50 µM
  TGI: > 50 µM
[2]
  GI50: 0.366 µM
  TGI: > 50 µM
[3]
  GI50: 45.4 µM
  TGI: > 50 µM
[4]
  GI50: 30.8 µM
  TGI: > 50 µM
[5]
  GI50: 37.5 µM
  TGI: > 50 µM
[6]
  GI50: 12 µM
  TGI: > 50 µM
[7]
  GI50: 17.5 µM
  TGI: > 50 µM
[8]
  GI50: 19.6 µM
  TGI: > 50 µM
[9]
  GI50: 43.9 µM
  TGI: > 50 µM
[10]
  GI50: 27.5 µM
  TGI: > 50 µM
[11]
  GI50: 16.3 µM
  TGI: > 50 µM
[12]
  GI50: 28.7 µM
  TGI: > 50 µM
[13]
  GI50: 44.6 µM
  TGI: > 50 µM
[14]
  GI50: 23.3 µM
  TGI: > 50 µM
[15]
  GI50: > 50 µM
  TGI: > 50 µM
[16]
  GI50: 23.5 µM
  TGI: > 50 µM
[17]
  GI50: 18.7 µM
  TGI: > 50 µM
[18]
  GI50: 31.2 µM
  TGI: > 50 µM
[19]
  GI50: 21 µM
  TGI: > 50 µM
[20]
  GI50: > 50 µM
  TGI: > 50 µM
[21]
  GI50: 2.91 µM
  TGI: 24.9 µM
[22]
  GI50: 22.5 µM
  TGI: > 50 µM
[23]
  GI50: > 50 µM
  TGI: > 50 µM
[24]
  GI50: 30.6 µM
  TGI: > 50 µM
[25]
  GI50: 25.7 µM
  TGI: > 50 µM
[26]
  GI50: > 50 µM
  TGI: > 50 µM
[27]
  GI50: 29 µM
  TGI: > 50 µM
[28]
  GI50: 14.3 µM
  TGI: 44.8 µM
[29]
  GI50: > 50 µM
  TGI: > 50 µM
[30]
  GI50: > 50 µM
  TGI: > 50 µM
[31]
  GI50: 35.4 µM
  TGI: > 50 µM
[32]
  GI50: 31.4 µM
  TGI: > 50 µM
[33]
  GI50: 17.2 µM
  TGI: > 50 µM
[34]
  GI50: 27.5 µM
  TGI: > 50 µM
[35]
  GI50: > 50 µM
  TGI: > 50 µM
[36]
  GI50: 9.23 µM
  TGI: > 50 µM
[37]
  GI50: 13.5 µM
  TGI: 43.9 µM
[38]
  GI50: > 50 µM
  TGI: > 50 µM
[39]
  GI50: > 50 µM
  TGI: > 50 µM
[40]
  GI50: 17.3 µM
  TGI: > 50 µM
[41]
  GI50: 13.3 µM
  TGI: > 50 µM
[42]
  GI50: 34.5 µM
  TGI: > 50 µM
[43]
  GI50: 14.4 µM
  TGI: > 50 µM
[44]
  GI50: 3.06 µM
  TGI: > 50 µM
[45]
  GI50: 21.4 µM
  TGI: > 50 µM
[46]
  GI50: 21.4 µM
  TGI: > 50 µM
[47]
  GI50: 18.1 µM
  TGI: > 50 µM
[48]
  GI50: > 50 µM
  TGI: > 50 µM
[49]
  GI50: 12.5 µM
  TGI: 49.4 µM
[50]
  GI50: > 50 µM
  TGI: > 50 µM
